Source: patent US6737241B2, “Methods for screening for transdominant intracellular effector peptides and RNA molecules” (Rigel Pharmaceuticals, Inc., priority 1996, dated 2004)

Assays:
[1] = system: NIH 3T3 cells; experiment: Staurosporine induction of apoptosis (ethidium bromide/acridine orange double staining); assay type: cell-based; conditions: 1 uM in serum-free media, within 24 hours
Experimental: D. Staurosporine selection. Staurosporine, an alkaloid from Streptomyces sp., is a potent, broad spectrum inhibitor of protein kinases which binds the ATP site. Addition of 1 uM staurosporine in serum-free media to NIH 3T3 cells induced >99% apoptosis within 24 hours, as determined by ethidium bromide/acridine orange double staining as described for the Fas selection.

[2] = system: cells; experiment: Staurosporin induced apoptosis in cells expressing the peptide with a retrovirus; assay type: cell-based; conditions: peptide expressed in cells with a retrovirus
[3] = system: Jurkat EcoR cells; experiment: IgM anti-Fas (CH-11) selection of retrovirus-transduced Jurkat cells; conditions: peptide expressed in cells with a retrovirus
Experimental: A sterile Acrodisc 0.45 micron syringe filter (Gelman Sciences) was attached to the end of a 10 ml sterile syringe and the injection stopper sterilely removed from the syringe barrel. At 48 hours post-transfection, the virus supernatant was removed from the Phoenix cells and added to the syringe barrel. The stopper was replaced and the virus supernatant was ejected dropwise into a clean, sterile conical tube. […] Polybrene was added to each viral supernatant (Sigma; 2.5 mg/ml in ddH20=500×; store at −20° C.) to a final concentration of 5 mg/ml. 4.5×10^6 Jurkat EcoR cells (Jurkat cells stably expressing the ecotropic retrovirus receptor) were pelleted for 1400 rpm for five min and resuspended in 9 mls of the OL-2 library virus supernatant. The cells were distributed in aliquots of 1 ml, or 5×10^5 cells, into the wells of a 24 well plate. 1.5×10^6 Jurkat EcoR cells were similarly treated with 3 mls each of the lacZ viral supernatant and the OL-1 viral supernatant. Each cell plate was wrapped in parafilm, placed in a microplate carrier (DuPont) and centrifuged at 2500 rpm for 90 min at 32° C. in a DuPont/Sorvall RT 6000B table top centrifuge. After centrifugation, the cells were observed under a microscope. […] The parafilm was removed from the plates, which were placed at 32° C. […]

[4] = system: PKCa; experiment: PKCa localization by immunohistochemistry after PMA stimulation; assay type: cell-based, Murine
[5] = system: 3T3 cells; experiment: Propidium iodide staining of fixed cells to assay for apoptosis (TNF/CXH); assay type: cell-based; conditions: expressed in 3T3 cells
Experimental: Propidium Iodide staining of fixed cells to assay for apoptosis: (Sherwood and Schimke, Methods in Cell Biology, 46:77-87, 1995) 3T3 cells transiently infected with MFGLacZ, Bcl2, or CPP32 were plated and treated with TNF/CXH as described above, and harvested and washed as above. Cells were then resuspended in 70% ethanol in PBS at 4° C. and kept at 4° C. overnight. When ready to FACS, cells were stained with propidium iodide as follows. Cells were spun at 14,000 RPM for 10 seconds and washed once with PBS/BSA. Cells were then resuspended in […] staining solution (PBS with 50 mg/ml RNase A (DNase-free) with 10 mg/ml propidium iodide) and incubated at 37° C for at least 1 hour. Cells were then pelleted and resuspended in PBS/BSA solution containing 10 mg/ml propidium iodide and analyzed by FACS scanning.

[6] = biological target: T1, CPP32 (Mus musculus, UniProt P70677); experiment: Enzymatic assay of CPP32 activity (DEVD-pNA cleavage) in extracts of TNF/CXH-stimulated 3T3 cells; assay type: biochemical; conditions: cell extracts, 30 min to 4 hours after TNF/CXH; control WIN cells rise at 2 hours
T1 construct: endogenous in cells; host or cells: 3T3 cells (lysate after TNF/cycloheximide stimulation)
T1 sequence (P70677 29-175 limits assumed): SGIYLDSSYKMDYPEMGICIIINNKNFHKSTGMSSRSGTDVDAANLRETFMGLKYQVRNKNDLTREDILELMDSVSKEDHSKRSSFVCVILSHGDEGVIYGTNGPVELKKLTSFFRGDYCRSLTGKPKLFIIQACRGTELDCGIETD
T1 sequence (P70677 176-277 limits assumed): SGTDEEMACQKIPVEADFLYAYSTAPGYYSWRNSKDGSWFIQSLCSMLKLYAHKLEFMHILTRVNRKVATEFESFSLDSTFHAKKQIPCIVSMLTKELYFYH
Experimental: Enzymatic Assay of CPP32 activity: CPP32 Assay Kit: Clontech CPP32 Colorimetric Assay Kit (Cat. No. K2027-2): 3T3 cells were infected with the vectors described in Part I, section C, and selected in G418 media prior to assay. 6-well plates of 3T3 cells at near confluence were stimulated with TNF/CXH as described above and harvested at 30 min, 1, 2 and 4 hours after stimulation as follows. Cells were trypsinized and collected as described above. After transfering to an eppendorf tube, cells were spun and resuspended in […] chilled Cell Lysis Buffer. Cells were incubated for 10 minutes on ice, then […] of 2× Reaction Buffer containing DTT was added to each tube. 5 ml of the calorimetric conjugated substrate (DEVD-paranitroanilide, 50 mM final concentration) was added to each tube and incubated at 37° C. for 30 minutes. Samples were transferred to a 96 well plate and read on a spectrophotometer at O.D. of 405. […] By 4 hours, cells have begun to die and the activity is decreased. […] In the case of BCL2, it should be due to inhibition of apoptosis upstream of the enzyme. With CPP32 inhibitor peptide, it should be due to direct inhibition of enzymatic activity. These in vitro results are consistent with the results seen in cell death assays described above.

[7] = system: 3T3 cells; experiment: Apotag / TUNEL assay of apoptosis induced by hTNFa and cycloheximide; assay type: cell-based; conditions: expressed in 3T3 cells from an MSCV retroviral promoter; hTNFa 50 ng/ml + cycloheximide 6 hours, harvested at 24 hours
Experimental: Apotag assay: TUNEL (TdT-mediated dUTP-fluorescein nick end labeling) Boehringer Mannheim kit, catalog no. 168795
3T3 cells transiently infected with either MFGLacZ, BCL2, or […] plasmids were grown to 50% confluence at the time of induction with hTNFa (50 ng/ml media) and cycloheximide ([…] media) for 6 hours. Cells were washed at 6 hours and harvested at 24 hours after induction. Cells were harvested by pooling all media from cells (in order to collect any apoptotic, floating cells) with the washings and trypsinized cells. The cells were spun and washed with PBS containing 1% BSA, transferred to an eppendorf tube and the wash repeated once.
Cells were fixed in 4% paraformaldehyde at room temperature for 30 minutes, washed in PBS/BSA, then resuspended in permeabilisation buffer for 2 minutes on ice. After permeabilisation, cells were washed twice in PBS/BSA and incubated at 37° C. for 1 hour with labeling buffer containing fluoresceinated dUTP, unlabeled nucleotide mixture and terminal deoxynucleotidyl transferase (TdT). Cells were washed twice with PBS/BSA, resuspended in PBS/BSA and transferred to a FACS tube for analysis. Samples were also visualized under the fluorescence microscope.

With `CN[C@@H]1C[C@H]2O[C@@](C)([C@@H]1OC)n1c3ccccc3c3c4c(c5c6ccccc6n2c5c31)C(=O)NC4` [staurosporine, Staurosporine] the apoptosis [1] was > 99%.
MGKRKGDEVDGVGPP [OL-1] was tested, and the “inhibition of Staurosporin induced apoptosis” value [2] was “inhibit” and the “inhibition of Fas-mediated apoptosis” value [3] was “inhibit”.
With GKQKTKTIKGPP the “translocation of PKCa to the nucleus” value [4] was “able to specifically inhibit translocation of activated PKCa”.
In the case of “Bcl2: Bcl2 protein expressed from a retroviral vector; known inhibitor of apoptosis, positive control”, the “inhibition of apoptosis induced by tumor necrosis factor and cycloheximide (PI staining)” value [5] is reported as “able to inhibit apoptosis”, the “CPP32 enzyme activity (cleavage of DEVD-pNA)” value [6] is reported as “this rise in activity is not seen” and the “inhibition of apoptosis induced by tumor necrosis factor and cycloheximide (TUNEL)” value [7] is reported as “able to inhibit apoptosis”.
